According to PubChem BioAssay (NCI):
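Results reflect a 48-hour exposure of cells in 96-well plates to compound at five concentrations. GI50 is the concentration that inhibits growth by half. TGI is the concentration that stops growth completely.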

Legend:
Test in all cases: growth of human tumour cells (NCI), 48 h
786-0 renal = test system: 786-0 renal
A498 renal = test system: A498 renal
A549 NSCLC = test system: A549 NSCLC
ACHN renal = test system: ACHN renal
BT-549 breast = test system: BT-549 breast
CAKI-1 renal = test system: CAKI-1 renal
CCRF-CEM leukemia = test system: CCRF-CEM leukemia
COLO 205 colon = test system: COLO 205 colon
DU-145 prostate = test system: DU-145 prostate
HCC-2998 colon = test system: HCC-2998 colon
HCT-116 colon = test system: HCT-116 colon
HCT-15 colon = test system: HCT-15 colon
HL-60(TB) leukemia = test system: HL-60(TB) leukemia
HOP-62 NSCLC = test system: HOP-62 NSCLC
HOP-92 NSCLC = test system: HOP-92 NSCLC
HS 578T breast = test system: HS 578T breast
HT29 colon = test system: HT29 colon
IGROV1 ovarian = test system: IGROV1 ovarian
K-562 leukemia = test system: K-562 leukemia
KM12 colon = test system: KM12 colon
LOX IMVI melanoma = test system: LOX IMVI melanoma
M14 melanoma = test system: M14 melanoma
MALME-3M melanoma = test system: MALME-3M melanoma
MCF7 breast = test system: MCF7 breast
MDA-MB-231 breast = test system: MDA-MB-231 breast
MDA-MB-435 = test system: MDA-MB-435
MOLT-4 leukemia = test system: MOLT-4 leukemia
NCI-H226 lung = test system: NCI-H226 lung
NCI-H23 lung = test system: NCI-H23 lung
NCI-H460 lung = test system: NCI-H460 lung
NCI-H522 lung = test system: NCI-H522 lung
NCI/ADR-RES ovarian = test system: NCI/ADR-RES ovarian
OVCAR-3 ovarian = test system: OVCAR-3 ovarian
OVCAR-4 ovarian = test system: OVCAR-4 ovarian
OVCAR-5 ovarian = test system: OVCAR-5 ovarian
OVCAR-8 ovarian = test system: OVCAR-8 ovarian
PC-3 prostate = test system: PC-3 prostate
RPMI-8226 leukemia = test system: RPMI-8226 leukemia
RXF 393 renal = test system: RXF 393 renal
SF-268 CNS = test system: SF-268 CNS
SF-295 CNS = test system: SF-295 CNS
SF-539 CNS = test system: SF-539 CNS
SK-MEL-2 melanoma = test system: SK-MEL-2 melanoma
SK-MEL-28 melanoma = test system: SK-MEL-28 melanoma
SK-MEL-5 melanoma = test system: SK-MEL-5 melanoma
SK-OV-3 ovarian = test system: SK-OV-3 ovarian
SN12C renal = test system: SN12C renal
SNB-19 CNS = test system: SNB-19 CNS
SNB-75 CNS = test system: SNB-75 CNS
SR leukemia = test system: SR leukemia
SW-620 colon = test system: SW-620 colon
T-47D breast = test system: T-47D breast
TK-10 renal = test system: TK-10 renal
U251 CNS = test system: U251 CNS
UACC-257 melanoma = test system: UACC-257 melanoma
UACC-62 melanoma = test system: UACC-62 melanoma
UO-31 renal = test system: UO-31 renal
EKVX NSCLC = test system: EKVX NSCLC

With CCN(Cc1cc(F)cc(F)c1)c1ccc(CO)c(Cl)c1 the GI50 (786-0 renal) was 12.5 µM, the TGI (786-0 renal) was 27.2 µM and the GI50 (A498 renal) was 0.0343 µM. The TGI (A498 renal) was 0.167 µM, the GI50 (A549 NSCLC) was 2.36 µM and the TGI (A549 NSCLC) was 21.5 µM. The GI50 (ACHN renal) was 13.3 µM, the TGI (ACHN renal) was 27 µM and the GI50 (BT-549 breast) was 14.4 µM. The TGI (BT-549 breast) was 29.1 µM, the GI50 (CAKI-1 renal) was 0.456 µM and the TGI (CAKI-1 renal) was 2.64 µM. For the same compound, the GI50 (CCRF-CEM leukemia) was 18.5 µM, the TGI (CCRF-CEM leukemia) was 66.5 µM and the GI50 (COLO 205 colon) was 3 µM. For the same compound, the TGI (COLO 205 colon) was 10.5 µM, the GI50 (DU-145 prostate) was 15.4 µM and the TGI (DU-145 prostate) was 34.2 µM. For the same compound, the GI50 (HCC-2998 colon) was 7.68 µM, the TGI (HCC-2998 colon) was 23.6 µM and the GI50 (HCT-116 colon) was 0.0723 µM. It also gave a TGI (HCT-116 colon) of 8.31 µM, a GI50 (HCT-15 colon) of 12.4 µM and a TGI (HCT-15 colon) of 29.9 µM. The GI50 (HL-60(TB) leukemia) was 7.25 µM, the TGI (HL-60(TB) leukemia) was 32.7 µM and the GI50 (HOP-62 NSCLC) was 2.67 µM. It also gave a TGI (HOP-62 NSCLC) of 20.2 µM, a GI50 (HOP-92 NSCLC) of 0.195 µM and a TGI (HOP-92 NSCLC) of 9.25 µM. It also gave a GI50 (HS 578T breast) of 16.4 µM, a TGI (HS 578T breast) of 44.7 µM and a GI50 (HT29 colon) of 3.74 µM. The TGI (HT29 colon) was 17.1 µM, the GI50 (IGROV1 ovarian) was 0.0726 µM and the TGI (IGROV1 ovarian) was 0.38 µM. For the same compound, the GI50 (K-562 leukemia) was 1.04 µM, the TGI (K-562 leukemia) was 23 µM and the GI50 (KM12 colon) was 13 µM. It also gave a TGI (KM12 colon) of 26.6 µM, a GI50 (LOX IMVI melanoma) of 14.4 µM and a TGI (LOX IMVI melanoma) of 28.2 µM. It also gave a GI50 (M14 melanoma) of 15.3 µM, a TGI (M14 melanoma) of 32.4 µM and a GI50 (MALME-3M melanoma) of 15 µM. For the same compound, the TGI (MALME-3M melanoma) was 30.4 µM, the GI50 (MCF7 breast) was 0.208 µM and the TGI (MCF7 breast) was 12.8 µM. It also gave a GI50 (MDA-MB-231 breast) of 13 µM, a TGI (MDA-MB-231 breast) of 26.7 µM and a GI50 (MDA-MB-435) of 14.4 µM. For the same compound, the TGI (MDA-MB-435) was 30 µM, the GI50 (MOLT-4 leukemia) was 18.3 µM and the TGI (MOLT-4 leukemia) was 51 µM. The GI50 (NCI-H226 lung) was 0.0801 µM, the TGI (NCI-H226 lung) was 0.214 µM and the GI50 (NCI-H23 lung) was 12.3 µM. The TGI (NCI-H23 lung) was 33.5 µM, the GI50 (NCI-H460 lung) was 0.205 µM and the TGI (NCI-H460 lung) was 12.5 µM. The GI50 (NCI-H522 lung) was 13.5 µM, the TGI (NCI-H522 lung) was 29.4 µM and the GI50 (NCI/ADR-RES ovarian) was 14.8 µM. For the same compound, the TGI (NCI/ADR-RES ovarian) was 38.4 µM, the GI50 (OVCAR-3 ovarian) was 0.342 µM and the TGI (OVCAR-3 ovarian) was 2.31 µM. For the same compound, the GI50 (OVCAR-4 ovarian) was 0.168 µM, the TGI (OVCAR-4 ovarian) was 2.73 µM and the GI50 (OVCAR-5 ovarian) was 0.0668 µM. It also gave a TGI (OVCAR-5 ovarian) of 0.287 µM, a GI50 (OVCAR-8 ovarian) of 13.4 µM and a TGI (OVCAR-8 ovarian) of 34.7 µM. For the same compound, the GI50 (PC-3 prostate) was 12.5 µM, the TGI (PC-3 prostate) was 27.1 µM and the GI50 (RPMI-8226 leukemia) was 2.48 µM. It also gave a TGI (RPMI-8226 leukemia) of 26.1 µM, a GI50 (RXF 393 renal) of 2.54 µM and a TGI (RXF 393 renal) of 17.5 µM. It also gave a GI50 (SF-268 CNS) of 15.5 µM, a TGI (SF-268 CNS) of 31.3 µM and a GI50 (SF-295 CNS) of 0.379 µM. For the same compound, the TGI (SF-295 CNS) was 14.3 µM, the GI50 (SF-539 CNS) was 15.1 µM and the TGI (SF-539 CNS) was 29.5 µM. It also gave a GI50 (SK-MEL-2 melanoma) of 4.43 µM, a TGI (SK-MEL-2 melanoma) of 20.2 µM and a GI50 (SK-MEL-28 melanoma) of 13.7 µM. For the same compound, the TGI (SK-MEL-28 melanoma) was 26.8 µM, the GI50 (SK-MEL-5 melanoma) was 11.8 µM and the TGI (SK-MEL-5 melanoma) was 24.2 µM. For the same compound, the GI50 (SK-OV-3 ovarian) was 10.5 µM, the TGI (SK-OV-3 ovarian) was 25.7 µM and the GI50 (SN12C renal) was 12.1 µM. For the same compound, the TGI (SN12C renal) was 25.2 µM, the GI50 (SNB-19 CNS) was 14.9 µM and the TGI (SNB-19 CNS) was 41.2 µM. For the same compound, the GI50 (SNB-75 CNS) was 8.49 µM, the TGI (SNB-75 CNS) was 27.3 µM and the GI50 (SR leukemia) was 17.2 µM. For the same compound, the TGI (SR leukemia) was 43.6 µM, the GI50 (SW-620 colon) was 0.652 µM and the TGI (SW-620 colon) was 18.6 µM. The GI50 (T-47D breast) was 0.118 µM, the TGI (T-47D breast) was 0.782 µM and the GI50 (TK-10 renal) was 0.0425 µM. For the same compound, the TGI (TK-10 renal) was 0.236 µM, the GI50 (U251 CNS) was 0.992 µM and the TGI (U251 CNS) was 16.4 µM. For the same compound, the GI50 (UACC-257 melanoma) was 0.0986 µM, the TGI (UACC-257 melanoma) was 0.429 µM and the GI50 (UACC-62 melanoma) was 0.115 µM. It also gave a TGI (UACC-62 melanoma) of 0.909 µM, a GI50 (UO-31 renal) of 3.24 µM and a TGI (UO-31 renal) of 21.4 µM.

Compound NC(CCCCO)C(=O)O (configuration not stated) has a TGI (A498 renal) greater than 100 µM, a TGI (A549 NSCLC) greater than 100 µM and a TGI (ACHN renal) greater than 100 µM. For the same compound, the TGI (BT-549 breast) was greater than 100 µM, the TGI (CAKI-1 renal) was greater than 100 µM and the TGI (CCRF-CEM leukemia) was greater than 100 µM. For the same compound, the TGI (COLO 205 colon) was greater than 100 µM, the TGI (DU-145 prostate) was greater than 100 µM and the TGI (EKVX NSCLC) was greater than 100 µM. For the same compound, the TGI (HCC-2998 colon) was greater than 100 µM, the TGI (HCT-15 colon) was greater than 100 µM and the TGI (HL-60(TB) leukemia) was greater than 100 µM. The TGI (HOP-62 NSCLC) was greater than 100 µM, the TGI (HOP-92 NSCLC) was greater than 100 µM and the TGI (HS 578T breast) was greater than 100 µM. For the same compound, the TGI (HT29 colon) was greater than 100 µM, the TGI (IGROV1 ovarian) was greater than 100 µM and the TGI (K-562 leukemia) was greater than 100 µM. For the same compound, the TGI (KM12 colon) was greater than 100 µM, the TGI (LOX IMVI melanoma) was greater than 100 µM and the TGI (M14 melanoma) was greater than 100 µM. It also gave a TGI (MALME-3M melanoma) greater than 100 µM, a TGI (MCF7 breast) greater than 100 µM and a TGI (MDA-MB-231 breast) greater than 100 µM. The TGI (MDA-MB-435) was greater than 100 µM, the TGI (NCI-H226 lung) was greater than 100 µM and the TGI (NCI-H23 lung) was greater than 100 µM. For the same compound, the TGI (NCI-H460 lung) was greater than 100 µM, the TGI (NCI-H522 lung) was greater than 100 µM and the TGI (NCI/ADR-RES ovarian) was greater than 100 µM. The TGI (OVCAR-3 ovarian) was greater than 100 µM, the TGI (OVCAR-4 ovarian) was greater than 100 µM and the TGI (OVCAR-5 ovarian) was greater than 100 µM. It also gave a TGI (OVCAR-8 ovarian) greater than 100 µM, a TGI (PC-3 prostate) greater than 100 µM and a TGI (RPMI-8226 leukemia) greater than 100 µM. For the same compound, the TGI (RXF 393 renal) was greater than 100 µM, the TGI (SF-268 CNS) was greater than 100 µM and the TGI (SF-295 CNS) was greater than 100 µM. The TGI (SK-MEL-2 melanoma) was greater than 100 µM, the TGI (SK-MEL-28 melanoma) was greater than 100 µM and the TGI (SK-MEL-5 melanoma) was greater than 100 µM. The TGI (SK-OV-3 ovarian) was greater than 100 µM, the TGI (SNB-19 CNS) was greater than 100 µM and the TGI (SNB-75 CNS) was greater than 100 µM. The TGI (SR leukemia) was greater than 100 µM, the TGI (SW-620 colon) was greater than 100 µM and the TGI (T-47D breast) was greater than 100 µM. For the same compound, the TGI (TK-10 renal) was greater than 100 µM, the TGI (U251 CNS) was greater than 100 µM and the TGI (UACC-257 melanoma) was greater than 100 µM. The TGI (UACC-62 melanoma) was greater than 100 µM and the TGI (UO-31 renal) was greater than 100 µM.
